Values quoted from earlier work as cited in patent US20250019715A1, “Ribosomal Biosynthesis Of Moroidin Peptides In Plants” (Whitehead Institute for Biomedical Research, priority 2021, published 2025).
Ends that are not written are not given here.

Experiments:
pain sensation = details: isolated as pain-causing agent from Dendrocnide moroides
tubulin polymerization = details: qualitative statement from prior knowledge

Compound | pain-causing activity (pain sensation) | inhibitory activity against tubulin polymerization (tubulin polymerization)
CC(C)C[C@@H]1NC(=O)[C@@H](NC(=O)[C@@H]2CCC(=O)N2)[C@@H](C(C)C)c2ccc3c4c([nH]c3c2)-n2cnc(c2)C[C@@H](C(=O)O)NC(=O)CNC(=O)[C@H](CCCN=C(N)N)NC(=O)[C@H](C4)NC(=O)[C@H](C(C)C)NC1=O [moroidin] | pain-causing agent | potent inhibitory activity
celogentin C (QLLVWPRH; bridge (positions not given here); also: bicyclic crosslinks, places not given here) [moroidin structural analog from Celosia argentea, core peptide QLLVWPRH] |  | potent inhibitory activity
